Source: US11752138B2 (VANDERBILT UNIVERSITY, priority 2020, dated 2023)
pIC50: −log10 of the molar value.

Experiments:
[1] = system: LDH; assay: LDH activity in mice liver lysates, rate of conversion of glyoxylate to oxalate (FIG. 2); type: in vivo; conditions: 5-10 mg/kg, oral daily dose for 5 days; liver harvested two hours after last dose; wild type and AGXT null mice
Protocol: FIG. 2. LDH activity as measured by the rate of conversion of glyoxylate (G) to oxalate (O) in mice livers. Wild type mice, closed circles; AGXT null mice; open squares. […] Liver was harvested from animals two hours after delivery of the last drug dose. Enzyme assays were performed with liver lysates in 0.1M Glycine-Sodium hydroxide buffer, pH 9.6, 20 mM glyoxylate, 3.25 mM NAD+, and the rate of increase in absorbance at 340 nm monitored at room temperature

[2] = biological target: Human LDHA (Homo sapiens (Human), UniProt P00338); assay: human LDHA primary biochemical assay (Example 1); conditions: biochemical LDHA inhibitory activity, assay of Example 1
From the text: This example describes a human LDHA primary biochemical assay employed in the characterization of a compound of Formula I in an embodiment of the dislcosure.
Test compounds were placed in a Greiner Bio-One (Monroe, N.C.) 1536-well black solid bottom assay plate. 200 millimolar (mM) Tris HCl, pH 7.4, 100 micromolar (μM) EDTA and 0.01% TWEEN-20™, final concentration, was used as the assay buffer. The LDHA reagent was 2 nanomolar (nM) Human LDHA (Meridian Life Science, Inc., Memphis, Tenn.), final concentration, in assay buffer. The substrate reagent was 0.06 mM NADH and 0.2 mM sodium pyruvate, final concentration, in assay buffer. The resazurin/diaphorase coupling reagent was 0.037 mM resazurin and 0.133 milligrams per milliliter (mg/mL) diaphorase, final concentration, in assay buffer. The inhibition of LDHA activity was measured by fluorescence emission. […]

SMILES	suppression of oxalate production in mice liver (LDH activity, glyoxylate to oxalate) [1]	pIC50 [2]
Cc1ccc(C#Cc2cccc(-c3nn(-c4nc(C(=O)O)co4)c(CC4CC4)c3Cc3ccc(S(N)(=O)=O)c(F)c3)c2)s1 [Compound 247, 2-(5-(cyclopropylmethyl)-4-(3-fluoro-4-sulfamoylbenzyl)-3-(3-((5-methylthiophen-2-yl)ethynyl)phenyl)-1H-pyrazol-1-yl)oxazole-4-carboxylic acid]	Maximal suppression of oxalate production	> 7.00
NS(=O)(=O)c1ccc(Cc2c(-c3ccc(F)c(C4=CCCCC4)c3)nn(-c3nc(C(=O)O)cs3)c2CC2CC2)cc1F [Compound 146, 2-(5-(cyclopropylmethyl)-3-(6-fluoro-2′,3′,4′,5′-tetrahydro-[1,1′-biphenyl]-3-yl)-4-(3-fluoro-4-sulfamoylbenzyl)-1H-pyrazol-1-yl)thiazole-4-carboxylic acid]		> 7.00
NS(=O)(=O)c1ccc(Cc2c(-c3ccc(F)c(-c4cccc(Cl)c4)c3)nn(-c3nc(C(=O)O)cs3)c2CC2CC2)cc1F [Compound 149, 2-(3-(3′-chloro-6-fluoro-[1,1′-biphenyl]-3-yl)-5-(cyclopropylmethyl)-4-(3-fluoro-4-sulfamoylbenzyl)-1H-pyrazol-1-yl)thiazole-4-carboxylic acid]		> 7.00
